Broadly, the IC50 is the concentration that gives 50% inhibition. What is called Emax is the size of the effect at its maximum, as opposed to the concentration needed. What is called EC50 is the concentration needed to bring the measured effect to its halfway point.

One series has as its system IL-1β. The series can be described thus: THP-1 AlphaLISA IL-1β cytokine assay. Type of series: cell-based. The conditions noted are these: for IC50: Homo sapiens, THP-1, differentiated THP-1 cells, LPS 24 hr then Nigericin 1 hour. A digest of the protocol: (§1)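 THP-1 cells differentiated with PMA for 72 h, pre-incubated with compound for 30 min, primed with LPS for 24 h, then given nigericin for 1 h at 37 °C. IL-1β and IL-6 in supernatants were read by AlphaLISA. % inhibition was set against ±LPS controls and IC50 taken from concentration–response curves.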

In the next series the test system is IL-6. The series can be described thus: THP-1 AlphaLISA IL-6 cytokine assay. The conditions noted are these: for IC50: Homo sapiens, THP-1, differentiated THP-1 cells, LPS 24 hr then Nigericin 1 hour. Type of series: cell-based. A digest of the protocol: as §1
(In Alpha technology, singlet oxygen from a donor bead excites a nearby acceptor bead.)

The subject of a further series is NRF2. The series can be described thus: NRF2 +/- GSH activation assay (DiscoverX PathHunter NRF2 translocation kit). Type of series: cell-based. The settings on record: for EC50: Homo sapiens, U2OS, U2OS PathHunter cells.
Series [1] can be described thus: Hepatocyte stability assay (human). Type of series: in vitro ADME. The conditions noted are these: human, cryopreserved hepatocytes, 10 μM compound, 60 min, read-out: T½. A digest of the protocol: (§2)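 Cryopreserved human or mouse hepatocytes (0.5×10^6 cells/mL in Leibovitz buffer) were incubated with 10 μM compound (0.1% DMSO) at 37° C in duplicate, alongside a buffer-only control. Samples taken from 0 to 60 min were analysed by LC-MS/MS. Half-life and Clint (μL min^−1 10^−6 cells) came from the ln % remaining versus time slope.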

For series [2], the system named is hepatocytes. The series can be described thus: Hepatocyte stability assay (human). Type of series: in vitro ADME. The settings on record: 10 μM compound, 60 min. A digest of the protocol:
as §2

Series [3] is described as follows: Hepatocyte stability assay (mouse). Type of series: in vitro ADME. The conditions noted are these: mouse, cryopreserved hepatocytes, 10 μM compound, 60 min, read-out: T½. A digest of the protocol: as §2
For series [4], the system named is hepatocytes. Description: Hepatocyte stability assay (mouse). Type of series: in vitro ADME. The conditions noted are these: 10 μM compound, 60 min. A digest of the protocol: as §2
Where [5] appears, read: +GSH, normalised to dimethyl fumarate high control.
[6] abbreviates: −GSH, normalised to dimethyl fumarate high control.
The mark [7] stands for this setting: THP-1 cells, statement in words.

For the compound `C=C(CC(=O)OC1(c2ccc(C(F)(F)F)cc2)CSC1)C(=O)O` [Example 40, 2-methylene-4-oxo-4-((3-(4-(trifluoromethyl)phenyl)thietan-3-yl)oxy)butanoic acid], the half-maximal inhibitory concentration (IC50) is 0.8 µM in the series on IL-1β and > 100 µM with IL-6. In addition, the Emax was 9% in the series with NRF2 (setting [5]) and 61% in the series on NRF2 (setting [6]). For the same compound, the EC50 with NRF2 (+GSH) was > 100 µM; in the series with NRF2 (−GSH), 1.7 µM. Further, the half-life at 10 μM amounted to 1.68 h in series [1] and 1.48 h in series [3]. Besides, the Clint was found to be 12 μL min^−1 10^−6 cells in the series with hepatocytes [2] and 25 μL min^−1 10^−6 cells with hepatocytes [4].

Regarding `C=C(CC(=O)OC1(c2ccc(C(F)(F)F)cn2)CC1)C(=O)O` [Example 58, 2-methylene-4-oxo-4-(1-(5-(trifluoromethyl)pyridin-2-yl)cyclopropoxy)butanoic acid], the IC50 with IL-1β was 3.2 µM; in the series on IL-6, > 42.2 µM. The Emax with NRF2 (setting [5]) was 0%; in the series on NRF2 (setting [6]) it was 1%. Moreover, the EC50 in the series with NRF2 (+GSH) and in the series on NRF2 (−GSH) was > 100 µM each time. In addition, the half-life at 10 μM in series [1] was 6.2 h; in series [3], 5.45 h. Besides, the Clint in the series with hepatocytes [2] and with hepatocytes [4] was 5 μL min^−1 10^−6 cells throughout.

In the case of `C/C(=C\C(=O)OC1(c2ccc(C(F)(F)F)cc2)CCC1)C(=O)O` [Example 21, (E)-2-methyl-4-oxo-4-(1-(4-(trifluoromethyl)phenyl)cyclobutoxy)but-2-enoic acid], the half-maximal inhibitory concentration (IC50) in the series on IL-1β is 7.3 µM; with IL-6 it was 49.7 µM. Also, the results for the Emax with NRF2 (setting [5]) and in the series on NRF2 (setting [6]) were 4% and 0%, respectively. Further, the EC50 in the series with NRF2 (+GSH) and in the series on NRF2 (−GSH) was > 100 µM each time. Besides, the values for the half-life at 10 μM in series [1] and in series [3] were 0.917 h and 0.45 h, respectively. Further, the Clint in the series on hepatocytes [2] was 31 μL min^−1 10^−6 cells; in the series with hepatocytes [4], 71 μL min^−1 10^−6 cells.

Turning to `C=C(CC(=O)OC1(c2ccc(C#CC(F)(F)F)cc2)CCC1)C(=O)O` [Example 36, 2-methylene-4-oxo-4-(1-(4-(3,3,3-trifluoroprop-1-yn-1-yl)phenyl)cyclobutoxy)butanoic acid], the values for the IC50 in the series on IL-1β and with IL-6 were > 31.6 µM and 5.6 µM, respectively. The Emax with NRF2 (setting [5]) was 90%; in the series on NRF2 (setting [6]), 116%. Further, the EC50 in the series with NRF2 (+GSH) amounted to 8.6 µM; in the series on NRF2 (−GSH), 9 µM. For the same compound, the half-life at 10 μM in series [1] is 1.87 h; in series [3], < 0.05 h. Also, the results for the Clint in the series on hepatocytes [2] and with hepatocytes [4] were 12 μL min^−1 10^−6 cells and >460 μL min^−1 10^−6 cells, respectively.

`C=C(CC(=O)OC1(c2ccc(C(F)(F)F)cc2)CCC1)C(=O)O` [Example 1, 2-methylene-4-oxo-4-(1-(4-(trifluoromethyl)phenyl)cyclobutoxy)butanoic acid]: the results for the 50% inhibitory concentration (IC50) with IL-1β and in the series on IL-6 were 0.8 µM and 62 µM, respectively. For the same compound, the “cytokine-lowering potencies for IL-1β compared to dimethyl itaconate, dimethyl fumarate and 4-octyl itaconate” value in the series on IL-1β (setting [7]) was “much improved cytokine-lowering potencies”. Further, the “cytokine-lowering potencies for IL-6 compared to dimethyl itaconate” value in the series with IL-6 (setting [7]) is listed as “improved cytokine-lowering potencies”. Besides, the maximum response (Emax) in the series with NRF2 (+GSH, data from repeated experiments) came to 14%; with NRF2 (setting [5]) it was 10%; in the series on NRF2 (−GSH, data from repeated experiments), 17%; in the series on NRF2 (setting [6]), 37%. The EC50 in the series on NRF2 (+GSH) and in the series on NRF2 (−GSH) was > 100 µM throughout. The values for the half-life at 10 μM in series [1] and in series [3] were 1.93 h and 2.52 h, respectively. Also, the Clint in the series with hepatocytes [2] amounted to 11 μL min^−1 10^−6 cells; in the series with hepatocytes [4], 13 μL min^−1 10^−6 cells.
